Experimental data taken from publication PMC6773865, “Functional recruitment of dynamin requires multimeric interactions for efficient endocytosis” (Nature Communications, 2019).
Where no end group is shown, it is not given here.

Assays:
[1] = system: uptake of cholera toxin B; format: cell-based
uptake of shiga toxin B = format: cell-based
[2] = system: β1 adrenergic receptor internalization in BSC-1 cells; test: β adrenergic receptor internalization assay, β1AR; format: cell-based; settings: 30 µM, 20 min pre-treatment, isoproterenol-induced
[3] = system: β2 adrenergic receptor internalization in BSC-1 cells; test: β adrenergic receptor internalization assay, β2AR; format: cell-based; settings: 30 µM, 20 min pre-treatment, isoproterenol-induced
[4] = biological target: dD15-N (divalent peptide: two D15 motifs linked through their N termini by PEG linkers); test: SPR; biotinylated peptides immobilised (50-90 RU) on biotin CAPture chips, GST-amphSH3 or Ntr-bSUMO-amphSH3 as analyte; 25 °C; 10 mM sodium phosphate pH 7.4, 150 mM NaCl, 0.01% Tween-20; single cycle kinetics, 1:1 Langmuir fit, estimated KDs
[5] = system: clathrin mediated endocytosis (TfR-SEP) in NIH 3T3 cells; test: ppH assay combined with patch-clamp dialysis; format: cell-based; settings: for event frequency ratio f = FWC/FCA: average ± SEM, SEM
Method: To do so, we monitored cellular endocytic activity using the ppH assay with new developments for fully automated analysis on a large number of cells (See “Methods” and Supplementary Fig. 4). We combined this assay, which monitors in real time the endocytic activity of cells, with the patch-clamp technique in order to dialyse the relevant peptide at a known concentration inside the cellular cytoplasm to inhibit endocytosis acutely. Each recording consisted of 5 min in cell-attached mode (CA) with no dialysis followed by 10 min in whole cell mode (WC) during which the inhibitors were dialysed (Fig. 5a, b). Each recording therefore had its own internal control condition, i.e., the cell-attached mode, from which we obtained the frequency ratio f = FWC/FCA, where F is the event frequency recorded during the indicated mode. Of note, the electrical parameters of patch clamp recordings were similar in all conditions (Supplementary Fig. 5). To assess the innocuousness of this assay, we monitored the endocytic activity of unperturbed cells vs. cells dialysed with a control solution (see methods for composition). Patching the cells minimally affected their endocytic activity over a 10 min period (event frequency f = 67.3 ± 4.3%, n = 60, vs. 90.7 ± 14.9% in no patching recordings, n = 8, p = 0.58).
NIH 3T3 cells (ECACC 93061524) were cultured in DMEM supplemented with 1% sodium pyruvate, 1% glutamax and 10% fetal calf serum (Invitrogen). Cells were incubated at 37 °C in 5% CO2 until use and subcultured every 2 to 4 days for maintenance up to passage 20. Cells were transfected with 1.5 μg of TfR-SEP plasmid 24 h prior to imaging and patch clamp. Care was taken to find the right balance between sufficient fluorescent signal to allow for proper imaging and reasonable overexpression to diminish potential saturation artefacts. Best results were obtained using Fugene 6 (Promega) as the transfection reagent but Lipofectamine 2000 (Invitrogen) has also been used in this study due to a temporary arrest of Fugene 6 production by the provider. All transfections were performed according to the manufacturers’ recommendations. Four to eight hours after transfection, cells were seeded at a density of ~70,000 cells ml^−1 on 18 mm glass coverslips coated with poly-L-lysine (3 min application of 0.1 mM polylysine (Sigma P2636) in borate buffer, pH 8.0 followed by a quick rinse in PBS) and used the next day.
Fast solution exchange was controlled by electro-valves (Lee company) connected to a theta glass pipette (TG150, Harvard Apparatus) pulled to ∼100-μm tip size using a vertical puller (Narishige, World Precision Instruments) placed above the recorded cell. Cells were alternatively perfused with HEPES or MES buffered saline solutions (HBS/MBS) containing (in mM): 135 NaCl, 5 KCl, 0.4 MgCl2, 1.8 CaCl2, 1 D-glucose and 20 HEPES or MES. The pH was adjusted to 7.4 or 5.5 using NaOH and osmolarity to 310–315 mOsm L^−1 with NaCl.
(§1) Cells were patched with pipettes made of borosilicate glass (GC150F, Harvard Apparatus) and pulled with a vertical Narishige puller (World Precision Instruments). The solution contained (in mM): 130–140 KCH3SO3, 1 EGTA, 0.1 CaCl2, 10–20 HEPES, 4 ATP (sodium or magnesium salt), 0.4 Na-GTP (or GTPγS when indicated), 5 phosphocreatine and 3 sodium ascorbate. pH was adjusted to 7.2 using KOH and osmolarity to ~300 mOsm L^−1. Sodium ascorbate was omitted in earlier recordings but was added for better stability. Chloride ions either came from 2 mM KCl, 10 mM NaCl or 4 mM MgCl2 (when Na-ATP was used) in various trials. All salts were purchased from Sigma-Aldrich. Cells were voltage-clamped at −60 mV with an EPC10 amplifier (HEKA) with series resistance and cell capacitance estimation every 4 s in the whole cell mode. The digital triggers of the amplifier were used to drive the electrovalves for pH changes. […]

[6] = system: membrane capacitance of NIH 3T3 cells (balance between exocytosis and endocytosis); test: Cell capacitance in whole cell patch-clamp; format: cell-based; settings: 10th minute over 1st minute of whole cell recording; peptides 1 mM; paired t-test
Method: as §1, with “changes. Cell viability and dialysis efficiency were made sure of by monitoring […] throughout the recording using the Patchmaster software (HEKA): series resistance should remain below 10 MΩ and holding current should remain above −100 pA. If either of these criteria was not respected (except holding current for recordings in GTPγS, see Supplementary Fig. 3D), the recording was not considered for analysis. On a given experimental day at least one control recording (i.e. without any peptide) was performed to ensure recording quality. All these recordings were pooled in the ‘control’ condition (n = 63 on 42 experimental days).” for “changes.”
Supplementary Figure 5: Characteristics of the whole cell recordings in the different conditions of this study. A, Scheme of the equivalent electrical circuit of a cell recorded in the whole cell configuration. […]
This is likely due to the activation of GTP dependent trimeric G proteins which activate various channels in the presence of GTPγS, thereby increasing the holding current. […] F, Ratios of Cm recorded during the 10 th minute of recording over Cm recorded during the 1st minute. […]

[7] = biological target: GST-amphSH3 (SH3 domain of murine amphiphysin1 fused to glutathione S-transferase) (not stated | murine) (UniProt Q7TQF7); test: SEC; analytical size exclusion chromatography, Superdex200 Increase 10/300 GL, PBS + 0.01% Tween-20, 0.75 mL/min
[8] = biological target: T1, SUMO-amphSH3 (SH3 domain of murine amphiphysin1 fused to the small ubiquitin-like modifier) (murine, UniProt Q7TQF7 607-686); test: SPR; biotinylated peptides immobilised (50-90 RU) on biotin CAPture chips, SUMO-amphSH3 as analyte; 25 °C; 10 mM sodium phosphate pH 7.4, 150 mM NaCl, 0.01% Tween-20; steady-state (equilibrium) analysis; settings: both partners purified
T1 construct: amphiphysin 1, mouse, SH3 domain, residues 607-686, subcloned from pAmph1-mCherry into a modified pET-SUMO vector with a TEV site after the SUMO tag; A TEV cleavage site and multiple cloning site lie between SUMO and the SH3 domain; Monomer by SEC; also called SUMO-SH3; monomeric amphSH3; source: E. coli BL21-CodonPlus (DE3)-RIPL, auto-induction at 16 °C, purified (Ni-NTA, SEC); not shown: SUMO, …
T1 sequence (looked up): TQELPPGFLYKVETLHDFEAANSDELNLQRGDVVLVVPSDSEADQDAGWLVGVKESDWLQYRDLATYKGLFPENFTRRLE

[9] = biological target: dD15-N (divalent peptide: two D15 motifs linked through their N termini by PEG linkers); test: as above
[10] = biological target: D44 peptide (derived from the dynamin1 PRD, bears motifs A and B); test: as above
[11] = biological target: dD15-N (divalent peptide: two D15 motifs linked through their N termini by PEG linkers); test: as above; remark: listed apart in the source

O=C(N/N=C/c1cc(O)c(O)cc1O)c1cc2ccccc2cc1O [Dyngo4a]
inhibition of cholera toxin B uptake [1]: only partially sensitive to inhibition
inhibition of shiga toxin B uptake (uptake of shiga toxin B): only partially sensitive to inhibition
effect on β1AR internalization [2]: fully block
effect on β2AR internalization [3]: fully block

Ntr-bSUMO-amphSH3 complex (biotinylated SUMO-amphSH3 bound to tetrameric neutravidin) (from UniProt Q7TQF7 607-686)
Kd [4]: 4.5 nM

Ac-YALGGAPPVPSRPGASPDPFGPPPQVPSRPNRAPPGVPRITISDP-NH2 (N-terminus and C-terminus assumed) [D44]
event frequency ratio f = FWC/FCA ([5]; 100 µM peptide in patch pipette, event frequency 8–10 min whole cell over 3–5 min cell attached, same cell, n = 13 (D15)): 41.4 ± 9.6%
event frequency ratio f = FWC/FCA ([5]; 1 mM peptide in patch pipette, event frequency 8–10 min whole cell over 3–5 min cell attached, same cell, n = 22 (D15), 15 (D44), 6 (dD15-C)): 20.6 ± 5.2%
inhibition of endocytosis on dialysis ([5]; peptide dialysed through patch pipette, 3T3 cells, ppH assay): fully inhibited CCV formation
change of Cm, Cm(10')/Cm(1') [6]: no significant decrease in Cm

Nc1nc2c(ncn2[C@@H]2O[C@H](COP(=O)(O)OP(=O)(O)OP(O)(O)=S)[C@@H](O)[C@H]2O)c(=O)[nH]1 [GTPγS, reference compound]
event frequency ratio f = FWC/FCA ([5]; GTP replaced by GTPγS in the pipette solution, n = 4): 11.2 ± 4.1%
change of Cm, Cm(10')/Cm(1') [6]: no significant decrease in Cm

GST-amphSH3 (SH3 domain of murine amphiphysin1 fused to glutathione S-transferase) (from UniProt Q7TQF7 607-686) (domain or fragment)
stoichiometry N [7]: 2
Kd [4]: 509 nM

B1: D15 peptide (monovalent, from the dynamin1 PRD, holds motif B) (peptide)
chain: PPPQVPSRPNRAPPG-NH2
modifications: also: N-terminal biotin via TTDS spacer (biotinylated form) or N-terminal acetyl (form used in cells)
Kd [8]: 102 ± 2 µM

B2: SUMO-amphSH3 (SH3 domain of murine amphiphysin1 fused to the small ubiquitin-like modifier) (domain or fragment)
chain: TQELPPGFLYKVETLHDFEAANSDELNLQRGDVVLVVPSDSEADQDAGWLVGVKESDWLQYRDLATYKGLFPENFTRRLE
Kd [9]: 66 µM
Kd [10]: 37 µM
Kd [11]: 65 µM
